In article PMC5488175, “A New Methodology for Incorporating Chiral Linkers into Stapled Peptides” (Chembiochem, 2017):

Assays:
[1] = Circular dichroism helicity; type: physicochemical; conditions: CD, MRE222 vs theoretical maximum; PBS (50 mM)/acetonitrile 95:5, pH 7.4, 20 °C; average of three scans
Protocol: Each purified peptide was dissolved in phosphate buffer (PBS; 50 mM)/acetonitrile (95:5, pH 7.4) and its circular dichroism spectrum was recorded.
Circular dichroism: CD spectra were obtained on a Chirascan CD spectrometer at 20 °C (1 mm path length, 260–190 nm, bandwidth 1.0 nm, response time 0.5 s, step resolution 1.0 nm) Each spectrum is the average of three scans. Peptides were dissolved in PBS (50 mM)/acetonitrile (95:5, pH 7.4) at 20 °C. The helicity was calculated as previously reported19b by comparing mean residue ellipticity at 222 nm (MRE222) to the theoretical maximum as calculated from the formula [Eq. (1), n=number of amino acid residues] described by Forood et al.21 (1) MRE222=-40000×(1-2.5/n)
Spectra were obtained at several concentrations ([…]).

α-chymotrypsin = test: Serum stability assay: incubation with α‐chymotrypsin; type: in vitro ADME; conditions: α-chymotrypsin (0.5 μg/mL) in PBS, α-chymotrypsin 0.5 μg mL−1 in PBS, peptide 0.3 mM from DMSO stock, RT, HPLC 220 nm vs caffeine internal standard, duplicate, read-out: peptide remaining intact after 6 h of incubation with α‐chymotrypsin
Protocol: Serum stability assay: Each peptide was dissolved in PBS (300 μL) from a DMSO stock to a final concentration of 0.3 mM. This PBS contained α‐chymotrypsin (0.5 μg mL^−1) and caffeine as an internal standard. Peptides were incubated at RT, and at each time point, an aliquot (30 μL) of the mixture was removed, snap frozen, thawed and centrifuged, and the supernatant was analysed by HPLC. Peptide degradation was monitored by comparing the integration of the peptide peak against the internal standard at […]. Experiments were performed in duplicate.

SMILES	Helicity [1] [%]	remaining at 6 h, 0.3 mM (α-chymotrypsin) [%]
C=CCCC[C@](C)(NC(=O)[C@H](Cc1ccccc1)NC(=O)[C@@H](NC(=O)[C@H](CCC(=O)O)NC(C)=O)[C@@H](C)O)C(=O)N[C@@H](CC(=O)O)C(=O)N[C@@H](CC(C)C)C(=O)N[C@@H](Cc1c[nH]c2ccccc12)C(=O)N[C@@H](CCCNC(=N)N)C(=O)N[C@@H](CC(C)C)C(=O)N[C@@H](CC(C)C)C(=O)N[C@@H](CCN=[N+]=[N-])C(=O)N[C@@H](CCC(=O)O)C(=O)N[C@@H](CC(N)=O)C(N)=O [SP0]	52	17
CC(=O)N[C@@H](CCC(=O)O)C(=O)N[C@H](C(=O)N[C@@H](Cc1ccccc1)C(=O)N[C@@]1(C)CCCC=CCCC[C@H](OC(=O)[C@@H](N)CCCCN)c2cn(nn2)CC[C@@H](C(=O)N[C@@H](CCC(=O)O)C(=O)N[C@@H](CC(N)=O)C(N)=O)NC(=O)[C@H](CC(C)C)NC(=O)[C@H](CC(C)C)NC(=O)[C@H](CCCNC(=N)N)NC(=O)[C@H](Cc2c[nH]c3ccccc23)NC(=O)[C@H](CC(C)C)NC(=O)[C@H](CC(=O)O)NC1=O)[C@@H](C)O [SP1 (A)]	53	82
CC(=O)N[C@@H](CCC(=O)O)C(=O)N[C@H](C(=O)N[C@@H](Cc1ccccc1)C(=O)N[C@@]1(C)CCCC=CCCC[C@H](OC(=O)[C@@H](N)CCCCN)c2cn(nn2)CC[C@@H](C(=O)N[C@@H](CCC(=O)O)C(=O)N[C@@H](CC(N)=O)C(N)=O)NC(=O)[C@H](CC(C)C)NC(=O)[C@H](CC(C)C)NC(=O)[C@H](CCCNC(=N)N)NC(=O)[C@H](Cc2c[nH]c3ccccc23)NC(=O)[C@H](CC(C)C)NC(=O)[C@H](CC(=O)O)NC1=O)[C@@H](C)O [SP1 (B)]	31	
CC(=O)N[C@@H](CCC(=O)O)C(=O)N[C@H](C(=O)N[C@@H](Cc1ccccc1)C(=O)N[C@@]1(C)CCCC=CCCC[C@H](OC(=O)[C@H](CCCCN)NC(=O)[C@@H](N)CCCCN)c2cn(nn2)CC[C@@H](C(=O)N[C@@H](CCC(=O)O)C(=O)N[C@@H](CC(N)=O)C(N)=O)NC(=O)[C@H](CC(C)C)NC(=O)[C@H](CC(C)C)NC(=O)[C@H](CCCNC(=N)N)NC(=O)[C@H](Cc2c[nH]c3ccccc23)NC(=O)[C@H](CC(C)C)NC(=O)[C@H](CC(=O)O)NC1=O)[C@@H](C)O [SP1‐K (A)]	55	
CC(=O)N[C@@H](CCC(=O)O)C(=O)N[C@H](C(=O)N[C@@H](Cc1ccccc1)C(=O)N[C@@]1(C)CCCC=CCCC[C@H](OC(=O)[C@H](CCCCN)NC(=O)[C@@H](N)CCCCN)c2cn(nn2)CC[C@@H](C(=O)N[C@@H](CCC(=O)O)C(=O)N[C@@H](CC(N)=O)C(N)=O)NC(=O)[C@H](CC(C)C)NC(=O)[C@H](CC(C)C)NC(=O)[C@H](CCCNC(=N)N)NC(=O)[C@H](Cc2c[nH]c3ccccc23)NC(=O)[C@H](CC(C)C)NC(=O)[C@H](CC(=O)O)NC1=O)[C@@H](C)O [SP1‐K (B)]	31	
CC(=O)N[C@@H](CCC(=O)O)C(=O)N[C@H](C(=O)N[C@@H](Cc1ccccc1)C(=O)N[C@@]1(C)CCCC=CCCC[C@@H](OC(=O)[C@@H](N)CCCCN)c2cn(nn2)CC[C@@H](C(=O)N[C@@H](CCC(=O)O)C(=O)N[C@@H](CC(N)=O)C(N)=O)NC(=O)[C@H](CC(C)C)NC(=O)[C@H](CC(C)C)NC(=O)[C@H](CCCNC(=N)N)NC(=O)[C@H](Cc2c[nH]c3ccccc23)NC(=O)[C@H](CC(C)C)NC(=O)[C@H](CC(=O)O)NC1=O)[C@@H](C)O [SP2 (A)]	67	
CC(=O)N[C@@H](CCC(=O)O)C(=O)N[C@H](C(=O)N[C@@H](Cc1ccccc1)C(=O)N[C@@]1(C)CCCC=CCCC[C@@H](OC(=O)[C@@H](N)CCCCN)c2cn(nn2)CC[C@@H](C(=O)N[C@@H](CCC(=O)O)C(=O)N[C@@H](CC(N)=O)C(N)=O)NC(=O)[C@H](CC(C)C)NC(=O)[C@H](CC(C)C)NC(=O)[C@H](CCCNC(=N)N)NC(=O)[C@H](Cc2c[nH]c3ccccc23)NC(=O)[C@H](CC(C)C)NC(=O)[C@H](CC(=O)O)NC1=O)[C@@H](C)O [SP2 (B)]	35	
CC(=O)N[C@@H](CCC(=O)O)C(=O)N[C@H](C(=O)N[C@@H](Cc1ccccc1)C(=O)N[C@@]1(C)CCCC=CCCC[C@@H](OC(=O)[C@H](CCCCN)NC(=O)[C@@H](N)CCCCN)c2cn(nn2)CC[C@@H](C(=O)N[C@@H](CCC(=O)O)C(=O)N[C@@H](CC(N)=O)C(N)=O)NC(=O)[C@H](CC(C)C)NC(=O)[C@H](CC(C)C)NC(=O)[C@H](CCCNC(=N)N)NC(=O)[C@H](Cc2c[nH]c3ccccc23)NC(=O)[C@H](CC(C)C)NC(=O)[C@H](CC(=O)O)NC1=O)[C@@H](C)O [SP2‐K (A)]	65	
CC(=O)N[C@@H](CCC(=O)O)C(=O)N[C@H](C(=O)N[C@@H](Cc1ccccc1)C(=O)N[C@@]1(C)CCCC=CCCC[C@@H](OC(=O)[C@H](CCCCN)NC(=O)[C@@H](N)CCCCN)c2cn(nn2)CC[C@@H](C(=O)N[C@@H](CCC(=O)O)C(=O)N[C@@H](CC(N)=O)C(N)=O)NC(=O)[C@H](CC(C)C)NC(=O)[C@H](CC(C)C)NC(=O)[C@H](CCCNC(=N)N)NC(=O)[C@H](Cc2c[nH]c3ccccc23)NC(=O)[C@H](CC(C)C)NC(=O)[C@H](CC(=O)O)NC1=O)[C@@H](C)O [SP2‐K (B)]	36	
